Reference: patent US8552018B2, “Substituted tricyclic compounds as protein kinase inhibitors” (Arizona Board of Regents on behalf of the University of …, priority 2003, dated 2013)

Key:
mutant forms of c-Kit = experiment: Activity against mutant c-Kit (stated); format: biochemical
[1] = system: MiaPaCa-2 pancreatic cancer cells; experiment: Apoptosis assay (Annexin V or TUNEL); format: cell-based
Experimental: (§1) Induction of apoptosis in cancer cells is a common mechanism of action for anti-cancer agents. To determine the role of MP470 in apoptosis, tumor cells were incubated with either compound and analyzed for apoptosis using Annexin V or TUNEL assays. […] In MiaPaCa-2 cells, MP470 at […] induced 81.4% apoptosis, while at 1 μM it induced 71% apoptosis. In Panc1 cells, MP470 at 10 μM induced over a 3-fold increase in apoptotic cells compared with non-treated cells.

[2] = system: Panc-1 pancreatic cancer cells; experiment: Apoptosis assay (Annexin V or TUNEL); format: cell-based; details: Panc1, 10 μM
Experimental: as §1

LNCaP tumors = experiment: Xenograft study; format: in vivo, mice; details: MP-470/Tarceva® in combination, 18 days treatment, FIG. 35
Experimental: A xenograft study was carried out in order to evaluate the combined effects of MP-470 (Compound III-1-3) and Tarceva® in vivo. LNCaP cells were injected into immunocompromised mice and allowed to develop into measurable tumors, at which point treatment was initiated. Mice were allocated to one of four groups and treated with vehicle, MP-470 (referred to in FIG. 35 as HPK56), Tarceva®, or MP-470/Tarceva® in combination, as indicated. […] The results of these studies are shown in graphical form in FIG. 35.

With S=C(NCc1ccc2c(c1)OCO2)N1CCN(c2ncnc3c2oc2ccccc23)CC1 [HPK56, 4-Benzo[4,5]furo[3,2-d]pyrimidin-4-yl-piperazine-1-carbothioic acid (benzo[1,3]dioxol-5-ylmethyl)-amide] the “activity against mutant forms of c-Kit (in words)” value (mutant forms of c-Kit) was “low nanomolar”, the apoptosis ([1]; MiaPaCa-2, 1 μM) was 71% and the apoptosis ([1]; MiaPaCa-2, 100 μM) was 81.4%. The “increase in apoptotic cells compared with non-treated cells” value [2] was > 3 fold and the tumor growth (LNCaP tumors) was “slowed tumor growth to nearly zero”.
